Measurements from US10010560B2, “Small molecule HSP70 inhibitors” (THE TRUSTEES OF THE UNIVERSITY OF PENNSYLVANIA, priority 2014, dated 2018).
Read-outs that look alike come from different tables or passages of the source.

How the values were obtained:
[1] = target: T1, ATP-bound DnaK (Escherichia coli, UniProt P0A6Y8); assay: ITC binding to ATP-bound DnaK; design: species or system E. coli; conditions: in words
T1 construct: Full-length recombinant proteins of HSP70 (aa 1-641) as well as DnaK (aa 1-638); His6 (N); made in house; host or cells: E. coli BL21 Star (DE3)
T1 sequence (P0A6Y8 whole entry, the tested form may be a part): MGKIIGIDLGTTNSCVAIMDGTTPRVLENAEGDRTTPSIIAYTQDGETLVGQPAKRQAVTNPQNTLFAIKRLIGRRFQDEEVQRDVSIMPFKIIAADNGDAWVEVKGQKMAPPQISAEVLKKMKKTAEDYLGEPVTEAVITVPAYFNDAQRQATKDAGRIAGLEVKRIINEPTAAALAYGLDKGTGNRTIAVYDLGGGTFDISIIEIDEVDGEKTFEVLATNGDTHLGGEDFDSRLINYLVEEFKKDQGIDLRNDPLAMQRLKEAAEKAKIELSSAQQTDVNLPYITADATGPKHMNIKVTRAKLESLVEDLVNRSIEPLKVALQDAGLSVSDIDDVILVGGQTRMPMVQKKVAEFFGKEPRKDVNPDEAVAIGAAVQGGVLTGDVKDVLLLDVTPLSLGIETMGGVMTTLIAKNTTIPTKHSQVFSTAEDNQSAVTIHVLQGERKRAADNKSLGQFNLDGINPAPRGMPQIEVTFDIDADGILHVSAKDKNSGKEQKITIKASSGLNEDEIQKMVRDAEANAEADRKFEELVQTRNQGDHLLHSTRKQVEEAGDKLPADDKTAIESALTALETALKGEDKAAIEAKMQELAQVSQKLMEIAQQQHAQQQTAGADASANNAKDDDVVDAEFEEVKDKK
Text: The human stress-inducible HSP70 (residues 1-641 or 386-616 of SEQ ID NO: 2) and E. coli DnaK (residues 1-638, 389-607, or 393-507 of SEQ ID NO: 4) were cloned into the pET25 vector (EMD Millipore Chemicals, Inc., Billerica, Mass., USA) between the NdeI and XhoI restriction sites. The full-length HSP70 and DnaK mutants were constructed by PCR-based site-directed mutagenesis using the QuikChange™ Site-Directed Mutagenesis Kit (Agilent Technologies, Inc., Santa Clara, Calif., USA). All plasmid inserts were verified by DNA sequencing. All HSP70 and DnaK variants were produced with a N-terminal His6-tag in the E. coli BL21 Star (DE3) strain (Invitrogen catalog number C6010-03). The resulting strains were grown at 37° C. in LB medium containing 50 μg/mL of carbenicillin (Sigma-Aldrich Co., St. Louis, Mo., USA). At an OD600 about 0.3 to about 0.5, protein expression was induced with 0.5 mM isopropyl-β-D-thiogalactopyranoside (IPTG), and cells were subsequently grown at 25° C. for about 16 h. Cells were collected by centrifugation and resuspended in the Bugbuster® Master Mix (EMD Millipore Chemicals catalog number 71456-4), supplemented with protease inhibitors, 1 mM diethiothreitol (DTT) and 20 mM imidazole. The His6-tagged fusion proteins were isolated on Ni^2+-chelating resins (Ni-NTA Superflow, Qiagen catalog number 30410) by standard procedures. […]

[2] = test system: Cyclophilin D (Cyp-D); assay: Purified mitochondria from H1299 cells, western blot for Cyp-D; assay type: cell-based
Text: FIGS. 5A-5F illustrates that PET-16 leads to loss of mitochondrial protein Cyclophilin D and impairs bioenergetics in tumor cells. FIGS. 5A-5D are western blots of HSP70, which is present at mitochondria of tumor H1299 cells but not in normal tissue, such as liver. The constitutively expressed 70 kDa family members, HSC70 and GRP75, are present in mitochondria of normal cells. Equal amounts of whole cell (WC)-, cytosolic (cyto)-, and mitochondrial (mito)-extracts prepared from cell lines H1299 (A, C) and MIA PaCa-2 (B) or normal (liver) cells (C, D) were examined by western blot analysis for the presence of the proteins indicated. […] Decreases of AlamarBlue® fluorescence, indicative of mitochondrial damage, are noted in PET-16-treated tumor cells (melanoma tumor cell line WM88 (-), melanoma tumor cell line WM3000 (×), melanoma tumor cell line WM852 (*), human melanoma 451 Lu cells (●), and melanoma tumor cell line WM989 (|), but not normal cells (nontransformed human fibroblasts (IMR90-♦) and primary melanocytes (▪)). Values are normalized to the vehicle-treated cells. Error bars represent standard deviation (s.d.) of four independent experiments. […]

[3] = target: T2, ADP-DnaK (WT, aa 1-638) (Escherichia coli, UniProt P0A6Y8); assay: ITC binding to ADP-bound full-length DnaK; design: species or system E. coli
T2 construct: Full-length recombinant proteins of HSP70 (aa 1-641) as well as DnaK (aa 1-638); His6 (N); made in house; host or cells: E. coli BL21 Star (DE3)
T2 sequence (P0A6Y8 whole entry, the tested form may be a part): as above
Method: For isothermal titration calorimetry studies, all HSP70 and DnaK variants were dialyzed extensively against the buffers as noted below under the section entitled “Isothermal Titration calorimetry Studies”. The dialyzed proteins were subsequently microcentrifugated at 15,000×g for 5 min at 4° C. and aliquots of the soluble proteins were stored at −80° C.
All ITC experiments were performed using a MicroCal VP-ITC isothermal titration calorimeter (MicroCal). Both full-length HSP70 and DnaK proteins and DnaK (aa 393-507) proteins were prepared in 1 mM Tris-HCl (pH 7.4) buffer containing 3% dimethylsulfoxide (DMSO). The HSP70 (aa 386-616) protein was prepared in buffer containing 3% DMSO and 10 mM Tris-HCl, pH 7. The syringe was loaded with purified protein in either 1 mM Tris-HCl (pH 7.4) buffer containing 3% DMSO or 10 mM Tris-HCl (pH 7) buffer containing 3% DMSO. […] All solutions were degassed for 5 min.
The titrations involving the full-length purified proteins were performed at 25° C. with injection volumes of 12 μL and a spacing of 300 s. The titrations involving the purified HSP70 (aa 386-616) and DnaK (aa 393-507) were performed at 42° C. with injection volumes of 12 μL and a spacing of 300 s. Heat from the pre-injection was not used during fitting. […]

[4] = target: T3, ATP-HSP70 (WT) (Homo sapiens, UniProt P0DMV8, E110D); assay: ITC binding to ATP-bound full-length HSP70
T3 construct: Full-length recombinant proteins of HSP70 (aa 1-641) as well as DnaK (aa 1-638); His6 (N); made in house; host or cells: E. coli BL21 Star (DE3)
T3 sequence (P0DMV8 whole entry E110D, the tested form may be a part): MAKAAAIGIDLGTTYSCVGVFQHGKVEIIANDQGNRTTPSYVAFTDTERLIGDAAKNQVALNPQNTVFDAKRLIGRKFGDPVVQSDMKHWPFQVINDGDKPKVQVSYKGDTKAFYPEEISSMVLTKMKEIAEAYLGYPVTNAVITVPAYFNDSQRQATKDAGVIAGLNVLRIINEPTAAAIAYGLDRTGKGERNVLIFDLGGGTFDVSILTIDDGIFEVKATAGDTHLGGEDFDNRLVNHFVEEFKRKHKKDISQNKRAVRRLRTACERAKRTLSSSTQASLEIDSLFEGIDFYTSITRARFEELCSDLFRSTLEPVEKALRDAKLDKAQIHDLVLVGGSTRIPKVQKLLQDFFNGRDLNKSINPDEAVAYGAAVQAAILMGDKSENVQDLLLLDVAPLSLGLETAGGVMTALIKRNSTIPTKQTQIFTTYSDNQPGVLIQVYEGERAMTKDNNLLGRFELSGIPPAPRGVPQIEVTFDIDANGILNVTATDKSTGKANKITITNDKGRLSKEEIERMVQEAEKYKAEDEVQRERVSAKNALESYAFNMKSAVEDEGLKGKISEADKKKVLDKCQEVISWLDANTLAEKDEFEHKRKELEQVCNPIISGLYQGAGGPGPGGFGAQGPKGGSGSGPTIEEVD
Text: The human stress-inducible HSP70 (residues 1-641 or 386-616 of SEQ ID NO: 2) and E. coli DnaK (residues 1-638, 389-607, or 393-507 of SEQ ID NO: 4) were cloned into the pET25 vector (EMD Millipore Chemicals, Inc., Billerica, Mass., USA) between the NdeI and XhoI restriction sites. The full-length HSP70 and DnaK mutants were constructed by PCR-based site-directed mutagenesis using the QuikChange™ Site-Directed Mutagenesis Kit (Agilent Technologies, Inc., Santa Clara, Calif., USA). All plasmid inserts were verified by DNA sequencing. All HSP70 and DnaK variants were produced with a N-terminal His6-tag in the E. coli BL21 Star (DE3) strain (Invitrogen catalog number C6010-03). The resulting strains were grown at 37° C. in LB medium containing 50 μg/mL of carbenicillin (Sigma-Aldrich Co., St. Louis, Mo., USA). At an OD600 about 0.3 to about 0.5, protein expression was induced with 0.5 mM isopropyl-β-D-thiogalactopyranoside (IPTG), and cells were subsequently grown at 25° C. for about 16 h. Cells were collected by centrifugation and resuspended in the Bugbuster® Master Mix (EMD Millipore Chemicals catalog number 71456-4), supplemented with protease inhibitors, 1 mM diethiothreitol (DTT) and 20 mM imidazole. The His6-tagged fusion proteins were isolated on Ni^2+-chelating resins (Ni-NTA Superflow, Qiagen catalog number 30410) by standard procedures. When necessary, size-exclusion chromatography on a Superdex® 200 or a Superose® 6 10/300 GL columns (GE Healthcare) analytical column pre-equilibrated with 1× Dulbecco's Phosphate Buffered Saline (DPBS—Invitrogen 14190-136), 1 mM Tris-HCl (pH 7.4) or 10 mM Tris-HCl (pH 7) was used as the final purification step. The purified DnaK proteins were dialyzed thoroughly against 1× DPBS with 5 mM DTT at 4° C., for crystallization trials involving the small molecule inhibitor PET-16. For isothermal titration calorimetry studies, all HSP70 and DnaK variants were dialyzed extensively against the buffers as noted below under the section entitled “Isothermal Titration calorimetry Studies”. […]

| SMILES | interaction with ATP-bound DnaK [1] | abundance of Cyp-D in the soluble-protein fraction [2] | Kd ([3]; ITC, wild-type full-length ADP-bound DnaK, read-out: Kd) [µM] | interaction with ATP-bound HSP70 ([4]; in words) | Kd [3] [µM] | Kd ([4]; wild-type full-length ATP-bound HSP70) [µM] |
| --- | --- | --- | --- | --- | --- | --- |
| NS(=O)(=O)C#Cc1ccccc1 [PES, 2-Phenylethynesulfonamide, reference compound] | notably reduced | not | ~6.8 | notably reduced |  |  |
| C(#C[P+](c1ccccc1)(c1ccccc1)c1ccccc1)c1ccccc1.[Br-] [PET-16, triphenyl(phenylethynyl)phosphonium bromide] | notably reduced | significantly reduced |  |  | ~6 | 130 ± 8.3 |
